# Entries after “also recorded” stand apart in the source; their conditions may differ.
# System: C57BL/6JBomTac mice
# Test: Contextual fear conditioning (CFC), freezing behavior
# Assay type: in vivo, mouse
# From the text: FIG. 10 depicts microtubule/tubulin exchange during hippocampus-dependent contextual memory. (A) Protocol for measurement of microtubule/tubulin exchange during contextual fear conditioning (CFC). Tubulin dimers and microtubules subsets were labeled to plateau through continuous ^2H2O labeling, starting one day before CFC training. Labeling was continued throughout CFC training (Day 2) and the contextual conditioning test until mice were euthanized (Day 3). Vehicle or nocodazole treated-mice were injected 4 hours before CFC training, consisting of three pairings of conditioned and unconditioned stimuli inside an observation chamber, as described in Example 7 below. […] Microtubule subpopulations were fractionated as described below, and the percentage of newly synthesized tubulin was quantified by GC/MS (mean±SD, n=3). […]
# Fear conditioning experiments were done as previously described (Bourtchouladze, R. et al. Different training procedures recruit either one or two critical periods for contextual memory consolidation, each of which requires protein synthesis and PKA. Learn. Mem. 5, 365-374 (1998)). […] On day later, contextual conditioning was assessed for 3 consecutive minutes in the chamber in which the mice were trained (CFC test). […]
compound,measurement,setting,value
COC(=O)Nc1nc2ccc(C(=O)c3cccs3)cc2[nH]1 [nocodazole],"freezing behavior (% of freezing to context), CFC test","nocodazole 0.2 mg/kg i.p. 4 hours before CFC training, test one day after training, vs vehicle-treated mice",significant reduction; also recorded: significantly lower
same,contextual fear responses measured immediately after training,"nocodazole vs vehicle, data not shown",similar

# — patent publication US20090197279A1, “MICROTUBULE SYNTHESIS AS A BIOMARKER” (KINEMED, INC., priority 2005, published 2009)
